{"source": "patent US20260232582A1", "about": "“PHARMACEUTICAL COMPOSITION OF ENSIFENTRINE WITH PHARMACEUTICALLY ACCEPTABLE PROPELLANTS” (CIPLA LIMITED, priority 2023, published 2026)", "origin": "cited, not measured here", "key": {"[1]": {"test_system": "COPD patients", "conditions": "Phase 2; DPI and pMDI formulations"}, "[2]": {"test_system": "COPD"}, "[3]": {"test_system": "subjects", "conditions": "clinical trials involving more than 2,200 subjects"}}, "data": [{"smiles": "COc1cc2c(cc1OC)-c1c/c(=N\\c3c(C)cc(C)cc3C)n(CCNC(N)=O)c(=O)n1CC2", "note": "[Ensifentrine]", "values": [{"measurement": "Lung function in COPD patients", "setting": "[1]", "value": "significant improvements in lung function"}, {"measurement": "Primary endpoint (improvements in lung function)", "setting": "[2]; nebulized, both ENHANCE-1 and ENHANCE-2 trials", "value": "met the primary endpoint"}, {"measurement": "Rate and risk of COPD exacerbations", "setting": "[2]; pooled analysis from ENHANCE-1 and ENHANCE-2", "value": "significantly reduced"}, {"measurement": "Tolerability in clinical trials", "setting": "[3]", "value": "well tolerated"}]}]}
